Results reported in publication PMC8150835, “An Smp43-Derived Short-Chain α-Helical Peptide Displays a Unique Sequence and Possesses Antimicrobial Activity against Both Gram-Positive and Gram-Negative Bacteria” (Toxins, 2021).
Converted amounts (≈) assume the structure as drawn. “Also recorded” adds a separate entry of the source. Where a SMILES comes first, the peptide text is derived from it.

Legend:
[1] = tested on: Gram-positive and Gram-negative bacteria (all bacterial strains tested); test: MIC determination, summary over all tested bacterial strains; format: cell-based; conditions: summary over the six strains tested; MHB, 37 °C, 18 h, peptide 0.625 to 40 μg/mL
Protocol: (§1) The antimicrobial activities of the peptides were tested against S. aureus ATCC29213, E. faecalis ATCC29212, E. coli ATCC25922, K. pneumoniae ATCC700603, P. aeruginosa ATCC27853 and A. baumannii ATCC19606. All these strains were purchased from the China Center of Type Culture Collection (CCTCC).
(§2) The antimicrobial activities of the peptides were determined as previously described. Briefly, the bacteria were incubated at 37 °C and 150 rpm until the log phase of growth. Next, the bacteria were diluted with Mueller-Hinton broth (MHB, Oxoid, UK) and prepared in a clear round-bottom polypropylene 96-well microtiter plate to achieve a final concentration of 5 × 10^5 colony-forming unit (CFU)/mL. Twofold serial dilutions of the peptides were added into each well with the concentrations ranging from 0.625 to 40 μg/mL. The mixed peptides and cells were cultured at 37 °C and 150 rpm for 18 h, and the optical density (OD) was measured at 630 nm. The minimum inhibitory concentration was defined as the lowest peptide concentration with no detectable bacterial growth.

[2] = tested on: Escherichia coli ATCC25922; test: MIC determination (broth microdilution); format: cell-based; conditions: MHB, 5 × 10^5 CFU/mL, peptide 0.625 to 40 μg/mL, 37 °C, 18 h, OD 630 nm
Protocol: as §1, §2

[3] = tested on: Pseudomonas aeruginosa ATCC27853; test: MIC determination (broth microdilution); format: cell-based; conditions: MHB, 5 × 10^5 CFU/mL, peptide 0.625 to 40 μg/mL, 37 °C, 18 h, OD 630 nm
Protocol: as §1, §2

[4] = tested on: Acinetobacter baumannii ATCC19606; test: MIC determination (broth microdilution); format: cell-based; conditions: MHB, 5 × 10^5 CFU/mL, peptide 0.625 to 40 μg/mL, 37 °C, 18 h, OD 630 nm
Protocol: as §1, §2

[5] = tested on: Klebsiella pneumoniae ATCC700603; test: MIC determination (broth microdilution); format: cell-based; conditions: MHB, 5 × 10^5 CFU/mL, peptide 0.625 to 40 μg/mL, 37 °C, 18 h, OD 630 nm
Protocol: as §1, §2

[6] = tested on: Enterococcus faecalis ATCC29212; test: MIC determination (broth microdilution); format: cell-based; conditions: MHB, 5 × 10^5 CFU/mL, peptide 0.625 to 40 μg/mL, 37 °C, 18 h, OD 630 nm
Protocol: as §1, §2

[7] = tested on: Staphylococcus aureus ATCC29213; test: MIC determination (broth microdilution); format: cell-based; conditions: MHB, 5 × 10^5 CFU/mL, peptide 0.625 to 40 μg/mL, 37 °C, 18 h, OD 630 nm
Protocol: as §1, §2

[8] = tested on: human red blood cells; test: Hemolytic activity determination; format: cell-based; conditions: 2% (v/v) hRBCs, peptide 12.5-200 μg/mL, 37 °C, 1 h, absorbance 540 nm; 1% Triton X-100 = 100%; three independent experiments
Protocol: The hemolytic activities of the peptides were determined against human red blood cells (hRBCs). Briefly, fresh hRBCs anticoagulated with sodium citrate were rinsed with 0.9% sodium chloride by centrifugation (1000× g, 5 min). Then, the cells were diluted to a final concentration of 2% (v/v) and prepared in a clear 96-well polypropylene microtiter plate. Next, the samples were mixed with a series of concentrations of the peptide (12.5, 25, 50, 100 and 200 μg/mL) and incubated at 37 °C for 1 h. After that, the samples were centrifuged (2000× g, 10 min), and the absorbances of the supernatants were measured at 540 nm to evaluate the release of hemoglobin. HRBCs treated with 1% Triton X-100 or 0.9% sodium chloride were taken as 100% and 0% hemolysis, respectively.

[9] = tested on: mouse fibroblast cell line L929; test: Cytotoxicity determination (CCK-8); format: cell-based; conditions: L929 cells, peptide 0-100 μg/mL, 24 h, CCK-8, OD 450 nm; three independent experiments
Protocol: To determine the cytotoxicity of the peptide, the mouse fibroblast cell L929 (8000 cells per well) were seeded in a 96-well plate and incubated for 24 h in Dulbecco’s modified Eagle’s medium (DMEM, Gibco, USA) supplemented with 10% fetal bovine serum (FBS, Gibco, USA), 2 mM/L L-glutamine, 100 U/mL penicillin and […] streptomycin (1% P/S, Invitrogen, USA) at 37 °C in a 5% CO2 atmosphere. Then, a series of concentrations of the peptide (0, 5, 10, 20, 40, 60, 80 and 100 μg/mL) were added into each well and incubation was performed for 24 h. After that, the cytotoxicity of the peptide was measured with the CCK8 cell counting kit (Yeasen, Shanghai, China) by measuring the optical density at 450 nm.

[10] = tested on: tested pathogens; conditions: reported for the parent peptide; cited from earlier work

In the case of `CC[C@H](C)[C@H](NC(=O)[C@H](CCCCN)NC(=O)CNC(=O)[C@H](C)NC(=O)[C@@H](NC(=O)[C@H](CCCCN)NC(=O)[C@H](CCCCN)NC(=O)[C@@H](NC(=O)[C@H](Cc1c[nH]c2ccccc12)NC(=O)[C@H](CC(=O)O)NC(=O)[C@H](Cc1c[nH]c2ccccc12)NC(=O)[C@@H](NC(=O)CN)C(C)C)[C@@H](C)CC)[C@@H](C)O)C(=O)N[C@@H](Cc1c[nH]c2ccccc12)C(N)=O` [Smp43(1-14)] (H-GVWDWIKKTAGKIW-NH2), the “MICs against the tested Gram-positive and Gram-negative bacterial species” value [1] was 5 to 10 µg/mL, the MIC [2] was 10 µg/mL (≈ 5.93 µM) and the MIC [3] was 10 µg/mL (≈ 5.93 µM). The MIC [4] was 5 µg/mL (≈ 2.96 µM), the MIC [5] was 10 µg/mL (≈ 5.93 µM) and the MIC [6] was 10 µg/mL (≈ 5.93 µM). The MIC [7] was 5 µg/mL (≈ 2.96 µM), the “HC10: the concentration of the peptide that causes 10% hemolysis of human red blood cells” value [8] was 75 µg/mL and the “IC10: the concentration of the peptide that causes 10% inhibition of cell growth” value [9] was 92 µg/mL.

Molecule `CC[C@H](C)[C@H](NC(=O)[C@H](CCCCN)NC(=O)[C@H](CCC(=O)O)NC(=O)[C@H](C)NC(=O)[C@@H](NC(=O)[C@H](Cc1ccccc1)NC(=O)[C@H](CC(N)=O)NC(=O)[C@H](CCCCN)NC(=O)[C@H](C)NC(=O)[C@H](C)NC(=O)[C@H](CC(N)=O)NC(=O)[C@H](CC(C)C)NC(=O)[C@H](C)NC(=O)[C@@H](N)CCC(N)=O)C(C)C)C(N)=O` [Smp43(25-38)] (H-QALNAAKNFVAEKI-NH2) has an MIC [2] greater than 40 µg/mL, an MIC [3] greater than 40 µg/mL and an MIC [4] greater than 40 µg/mL. It also gave an MIC [5] greater than 40 µg/mL, an MIC [6] greater than 40 µg/mL and an MIC [7] greater than 40 µg/mL. For the same molecule, the “HC10: the concentration of the peptide that causes 10% hemolysis of human red blood cells” value [8] was greater than 200 µg/mL.

For `CC[C@H](C)[C@H](NC(=O)[C@H](CCCCN)NC(=O)[C@H](CCC(=O)O)NC(=O)[C@H](C)NC(=O)[C@@H](NC(=O)[C@H](Cc1ccccc1)NC(=O)[C@H](CC(N)=O)NC(=O)[C@H](CCCCN)NC(=O)[C@H](C)NC(=O)[C@H](C)NC(=O)[C@H](CC(N)=O)NC(=O)[C@@H](N)CC(C)C)C(C)C)C(=O)NCC(=O)N[C@@H](C)C(N)=O` [Smp43(27-40)] (H-LNAAKNFVAEKIGA-NH2), the MIC [2] was greater than 40 µg/mL, the MIC [3] was greater than 40 µg/mL and the MIC [4] was greater than 40 µg/mL. It also gave an MIC [5] greater than 40 µg/mL, an MIC [6] greater than 40 µg/mL and an MIC [7] greater than 40 µg/mL. The “HC10: the concentration of the peptide that causes 10% hemolysis of human red blood cells” value [8] was greater than 200 µg/mL.

In the case of `CC[C@H](C)[C@H](NC(=O)[C@H](CCCCN)NC(=O)[C@H](CCC(=O)O)NC(=O)[C@H](C)NC(=O)[C@@H](NC(=O)[C@H](Cc1ccccc1)NC(=O)[C@H](CC(N)=O)NC(=O)[C@H](CCCCN)NC(=O)[C@H](C)NC(=O)[C@H](C)N)C(C)C)C(=O)NCC(=O)N[C@@H](C)C(=O)N[C@H](C(=O)N1CCC[C@H]1C(N)=O)[C@@H](C)O` [Smp43(29-42)] (H-AAKNFVAEKIGATP-NH2), the MIC [2] was greater than 40 µg/mL, the MIC [3] was greater than 40 µg/mL and the MIC [4] was greater than 40 µg/mL. For the same molecule, the MIC [5] was greater than 40 µg/mL, the MIC [6] was greater than 40 µg/mL and the MIC [7] was greater than 40 µg/mL. The “HC10: the concentration of the peptide that causes 10% hemolysis of human red blood cells” value [8] was greater than 200 µg/mL.

For “G-VWDWIKKTAGKIWNSEPVKALKSQALNAAKNFVAEKIGATPS [Smp43]”, the antimicrobial activity [10] is listed as “poor antimicrobial activities; also recorded: poor antimicrobial activity”.
